From ChEMBL document CHEMBL3112543, “Discovery of MK-7655, a β-lactamase inhibitor for combination with Primaxin®” (Bioorg Med Chem Lett, 2014)
pIC50: −log10 of the molar value.

Tests used:
Beta-lactamase = Beta-lactamase (Acinetobacter baumannii, UniProt Q8RLA6); assay: Inhibition of beta-lactamase Oxa40 in Acinetobacter baumannii assessed as inhibition of hydrolysis of nitrocefin
[1] = Inhibition of beta-lactamase KPC-2 in Klebsiella pneumoniae assessed as inhibition of hydrolysis of nitrocefin
Klebsiella pneumoniae = assay: Inhibition of beta-lactamase in Klebsiella pneumoniae CL 6569 assessed as drug concentration required to reduce imipenem MIC to 4 ug/ml
Acinetobacter baumannii = assay: Inhibition of beta-lactamase in Acinetobacter baumannii CL 6188 assessed as drug concentration required to reduce imipenem MIC to 4 ug/ml
Pseudomonas aeruginosa = assay: Inhibition of beta-lactamase in Pseudomonas aeruginosa CL 5701 assessed as drug concentration required to reduce imipenem MIC to 4 ug/ml
[2] = Inhibition of beta-lactamase AmpC in Acinetobacter baumannii assessed as inhibition of hydrolysis of nitrocefin
[3] = Inhibition of beta-lactamase AmpC in Pseudomonas aeruginosa assessed as inhibition of hydrolysis of nitrocefin

Chain of Beta-lactamase (Q8RLA6 whole entry): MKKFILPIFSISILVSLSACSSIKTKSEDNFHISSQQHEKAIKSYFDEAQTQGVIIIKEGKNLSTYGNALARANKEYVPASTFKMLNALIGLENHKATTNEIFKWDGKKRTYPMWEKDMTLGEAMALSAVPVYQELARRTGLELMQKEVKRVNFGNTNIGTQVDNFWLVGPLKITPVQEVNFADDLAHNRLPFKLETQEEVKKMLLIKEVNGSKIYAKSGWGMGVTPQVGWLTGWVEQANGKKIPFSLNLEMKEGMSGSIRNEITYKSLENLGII

| Compound | pIC50 (Beta-lactamase) | pIC50 [1] | INH (Klebsiella pneumoniae) [µM] | INH (Acinetobacter baumannii) [µM] | INH (Pseudomonas aeruginosa) [µM] | pIC50 [2] | pIC50 [3] |
| --- | --- | --- | --- | --- | --- | --- | --- |
| O=C(N[C@H]1CCNC1)[C@@H]1CC[C@@H]2CN1C(=O)N2OS(=O)(=O)O | < 4.30 | 6.39 | 6.25 | > 100 | 3.12 | 5.25 | 6.85 |
| O=C(N[C@@H]1CCCNCC1)[C@@H]1CC[C@@H]2CN1C(=O)N2OS(=O)(=O)O | < 4.30 | 6.65 | 12.5 | > 100 | 6.25 | 5.92 | 6.28 |
| O=C(N[C@H]1CCCNCC1)[C@@H]1CC[C@@H]2CN1C(=O)N2OS(=O)(=O)O | < 4.30 | 6.61 | 12.5 | > 100 | 6.25 | 5.77 | 7.16 |
| O=C(NC1CCS(=O)(=O)CC1)[C@@H]1CC[C@@H]2CN1C(=O)N2OS(=O)(=O)O | < 4.30 | 6.82 | 50 | > 100 | 50 | 6.33 | 8.02 |
| CN(C(=O)[C@@H]1CC[C@@H]2CN1C(=O)N2OS(=O)(=O)O)C1CCNCC1 | < 4.30 | 5.60 | 50 | > 100 | 25 | 5.68 | 6.54 |
| NCc1ccc(NC(=O)[C@@H]2CC[C@@H]3CN2C(=O)N3OS(=O)(=O)O)nc1 | 5.36 | 7.38 | 12.5 | > 100 | 6.25 | 7.59 | 8.52 |
| O=C(NC1CCNCC1)[C@@H]1CC[C@@H]2CN1C(=O)N2OS(=O)(=O)O [RELEBACTAM] | < 4.30 |  | 12.5 | > 100 | 4.7 | 5.39 | 6.33 |
| N[C@@H](Cc1ccc(NC(=O)[C@@H]2CC[C@@H]3CN2C(=O)N3OS(=O)(=O)O)cc1)C(=O)O | 4.55 | 8.52 | 50 | > 100 | 25 | 5.96 | 7.96 |
| O=C(O)c1ccc(NC(=O)[C@@H]2CC[C@@H]3CN2C(=O)N3OS(=O)(=O)O)cc1 | 5.32 | 8.00 | > 100 | > 100 | 50 | 6.34 | 7.96 |
| O=C(NCC1CCNCC1)[C@@H]1CC[C@@H]2CN1C(=O)N2OS(=O)(=O)O | < 4.30 | 7.11 | 6.25 | > 100 | 6.25 | 5.66 | 7.52 |
| O=C(OC1CCNCC1)[C@@H]1CC[C@@H]2CN1C(=O)N2OS(=O)(=O)O | 4.89 | 8.05 | 6.25 | > 100 | 6.25 | 5.96 | 6.77 |
| Nc1cccc(NC(=O)[C@@H]2CC[C@@H]3CN2C(=O)N3OS(=O)(=O)O)n1 | 6.44 | 7.96 | 25 | > 100 | 50 | 7.00 | 8.10 |
| O=C(N[C@@H]1CCNC1)[C@@H]1CC[C@@H]2CN1C(=O)N2OS(=O)(=O)O | < 4.30 | 6.59 | 6.25 | > 100 | 6.25 | 4.57 | 5.72 |
| O=C(Nc1ccncc1)[C@@H]1CC[C@@H]2CN1C(=O)N2OS(=O)(=O)O | 4.70 |  | 50 | > 100 | 25 | 5.98 | 8.22 |
| O=C(Nc1ccccn1)[C@@H]1CC[C@@H]2CN1C(=O)N2OS(=O)(=O)O | 6.28 | 7.44 | 100 | > 100 | 12.5 | 7.64 | 8.92 |
| CN1CCC(NC(=O)[C@@H]2CC[C@@H]3CN2C(=O)N3OS(=O)(=O)O)CC1 | < 4.30 | 6.62 | 12.5 | > 100 | 12.5 | 5.57 | 6.30 |
| O=C(Nc1cccnc1)[C@@H]1CC[C@@H]2CN1C(=O)N2OS(=O)(=O)O | 4.70 | 7.38 | 50 | > 100 | 100 | 5.92 | 7.43 |
| C[n+]1ccc(NC(=O)[C@@H]2CC[C@@H]3CN2C(=O)N3OS(=O)(=O)[O-])cc1 | < 4.30 | 6.59 | 25 | > 100 | 25 | 4.92 | 6.68 |
